Results taken from ChEMBL document CHEMBL5725365, “Tyrosine kinase inhibitors” (2017).

Molecular target: Tyrosine-protein kinase BTK (Homo sapiens, UniProt Q06187)
Assay: Enzymatic Activity Assay: A Caliper-based kinase assay (Caliper Life Sciences, Hopkinton, Mass.) was used to measure inhibition of BTK kinase activity of a compound of the present disclosure. Serial dilutions of test compounds were incubated with human recombinant BTK (0.5 nM), ATP (16 μM) and a phosphoacceptor peptide substrate FAM-[…]-NH2(1 μM) at room temperature for 3 h. The reaction was then terminated with EDTA, final concentration 20 mM and the phosphorylated reaction product was quantified on a Caliper Desktop Profiler (Caliper LabChip 3000).

Chain of Tyrosine-protein kinase BTK (Q06187 whole entry): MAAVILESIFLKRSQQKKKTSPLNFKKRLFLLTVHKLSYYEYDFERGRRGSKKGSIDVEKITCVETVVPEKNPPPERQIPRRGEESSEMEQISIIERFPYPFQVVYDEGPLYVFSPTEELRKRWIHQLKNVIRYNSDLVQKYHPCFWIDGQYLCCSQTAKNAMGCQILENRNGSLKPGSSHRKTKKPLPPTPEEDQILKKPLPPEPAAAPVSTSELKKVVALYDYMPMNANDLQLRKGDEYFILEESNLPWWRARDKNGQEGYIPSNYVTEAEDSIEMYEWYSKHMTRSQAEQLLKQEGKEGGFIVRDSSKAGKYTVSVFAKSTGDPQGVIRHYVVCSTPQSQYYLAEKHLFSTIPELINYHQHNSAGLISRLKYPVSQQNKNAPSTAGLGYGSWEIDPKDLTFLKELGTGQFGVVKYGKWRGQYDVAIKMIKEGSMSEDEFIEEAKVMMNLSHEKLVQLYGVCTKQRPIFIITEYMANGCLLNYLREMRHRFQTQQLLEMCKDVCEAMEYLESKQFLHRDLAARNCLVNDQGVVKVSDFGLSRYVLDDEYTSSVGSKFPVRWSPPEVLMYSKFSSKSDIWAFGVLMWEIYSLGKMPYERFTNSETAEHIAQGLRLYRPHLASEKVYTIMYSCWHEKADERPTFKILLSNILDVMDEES

IC50: 24 nM
Compound: CC(C)(C=C(C#N)C(=O)N1CCC[C@@H](n2c(=O)n(-c3ccc(Oc4ccccc4)cc3)c3c(N)nccc32)C1)C(=O)N1CCN(C2COC2)CC1
